The subject of series [1] is Staphylococcus aureus. Briefly: Antibacterial activity against Methicillin-resistant Staphylococcus aureus ATCC 33591 assessed as inhibition of bacterial growth incubated for 18 to 24 hrs by CLSI microbroth dilution method. It is filed as functional. Particulars: time 18-24 hrs.
The test system of series [2] is Staphylococcus aureus. Nature of the series: Antibacterial activity against Vancomycin-resistant Staphylococcus aureus 1 assessed as inhibition of bacterial growth incubated for 18 to 24 hrs by CLSI microbroth dilution method. It is filed as functional. Particulars: time 18-24 hrs.
Series [3] concerns Staphylococcus aureus. Nature of the series: Antibacterial activity against Vancomycin-resistant Staphylococcus aureus 4 assessed as inhibition of bacterial growth incubated for 18 to 24 hrs by CLSI microbroth dilution method. It is filed as functional. Particulars: time 18-24 hrs. (Dilution methods test growth across graded concentrations, often in twofold steps.)
In series [4] the test system is Staphylococcus aureus. Nature of the series: Antibacterial activity against Vancomycin-resistant Staphylococcus aureus 12 assessed as inhibition of bacterial growth incubated for 18 to 24 hrs by CLSI microbroth dilution method. Particulars: time 18-24 hrs. It is filed as functional.
Series [5] concerns Enterococcus. Nature of the series: Antibacterial activity against Vancomycin-resistant Enterococci NR30903 assessed as inhibition of bacterial growth incubated for 18 to 24 hrs by CLSI microbroth dilution method. It is filed as functional. Particulars: time 18-24 hrs.
Series [6] relates to Enterococcus. Briefly: Antibacterial activity against Vancomycin-resistant Enterococci NR30909 assessed as inhibition of bacterial growth incubated for 18 to 24 hrs by CLSI microbroth dilution method. It is filed as functional. Particulars: time 18-24 hrs.
Series [7] deals with Enterococcus. Briefly: Antibacterial activity against Vancomycin-resistant Enterococci ATCC 51575 assessed as inhibition of bacterial growth incubated for 18 to 24 hrs by CLSI microbroth dilution method. It is filed as functional. Particulars: time 18-24 hrs.
Series [8] relates to Enterococcus. Briefly: Antibacterial activity against Vancomycin-resistant Enterococci ATCC 51559 assessed as inhibition of bacterial growth incubated for 18 to 24 hrs by CLSI microbroth dilution method. It is filed as functional. Particulars: time 18-24 hrs.
The subject of series [9] is Staphylococcus aureus. Briefly: Potency index, ratio of Vancomycin MIC to test compound MIC for antibacterial activity against Methicillin-resistant Staphylococcus aureus ATCC 33591. It is filed as functional.
Series [10] has as its system Staphylococcus aureus. Nature of the series: Potency index, ratio of Vancomycin MIC to test compound MIC for antibacterial activity against Vancomycin-resistant Staphylococcus aureus 1. It is filed as functional.
In series [11] the test system is Staphylococcus aureus. Nature of the series: Potency index, ratio of Vancomycin MIC to test compound MIC for antibacterial activity against Vancomycin-resistant Staphylococcus aureus 4. It is filed as functional.
The subject of series [12] is Staphylococcus aureus. Nature of the series: Potency index, ratio of Vancomycin MIC to test compound MIC for antibacterial activity against Vancomycin-resistant Staphylococcus aureus 12. It is filed as functional.
The test system of series [13] is Enterococcus. Nature of the series: Potency index, ratio of Vancomycin MIC to test compound MIC for antibacterial activity against Vancomycin-resistant Enterococci NR30903. It is filed as functional, NR 30903.
Series [14] deals with Enterococcus. Nature of the series: Potency index, ratio of Vancomycin MIC to test compound MIC for antibacterial activity against Vancomycin-resistant Enterococci NR30909. It is filed as functional, NR 30909.
Series [15] relates to Enterococcus. Briefly: Potency index, ratio of Vancomycin MIC to test compound MIC for antibacterial activity against Vancomycin-resistant Enterococci ATCC 51575. It is filed as functional.
Series [16] has as its system Enterococcus. Nature of the series: Potency index, ratio of Vancomycin MIC to test compound MIC for antibacterial activity against Vancomycin-resistant Enterococci ATCC 51559. It is filed as functional.
The nature of series [17]: Induction of hemolysis in human erythrocytes incubated for 1 hr by microtiter plater reader analysis. It is filed as toxicity, cell-based, Erythrocyte.
Series [18] can be described thus: Induction of hemolysis in human erythrocytes at 250 uM incubated for 1 hr by microtiter plater reader analysis. Particulars: read-out: Activity. It is filed as toxicity, cell-based, Erythrocyte.

In brackets after ≈: the same amount, converted by molar mass.

One may read the MIC as the lowest concentration found to suppress growth. In general, HC50 refers to the concentration that lyses half of the red blood cells. A high value points to weaker haemolysis. For the molecule `CCCCCCNC(=O)C[N+](C)(C)CCCNC(=O)c1ccc(CN[C@@]2(C)C[C@H](O[C@H]3[C@H](Oc4c5cc6cc4Oc4ccc(cc4Cl)[C@@H](O)[C@@H](NC(=O)[C@@H](CC(C)C)NC)C(=O)N[C@@H](CC(N)=O)C(=O)N[C@H]6C(=O)N[C@H]4C(=O)N[C@H](C(=O)N[C@H](C(=O)O)c6cc(O)cc(O)c6-c6cc4ccc6O)[C@H](O)c4ccc(c(Cl)c4)O5)O[C@H](CO)[C@@H](O)[C@@H]3O)O[C@@H](C)[C@H]2O)cc1`, the MIC with Staphylococcus aureus [1] was 0.4 µM; in the series on Staphylococcus aureus [2], 14.9 µM; with Staphylococcus aureus [3] it was 29.8 µM; in the series with Staphylococcus aureus [4], 7.4 µM; in the series on Enterococcus [5], 7.4 µM; in the series with Enterococcus [6] it was 14.9 µM. Further, the minimum inhibitory concentration (MIC) with Enterococcus [7] and in the series with Enterococcus [8] was above 30 µM in each case. Besides, the Ratio is on record as 2 in the series with Staphylococcus aureus [9]; 10 with Staphylococcus aureus [10]; 10 in the series with Staphylococcus aureus [11]; 10 in the series with Staphylococcus aureus [12]; 10 with Enterococcus [13]; 10 with Enterococcus [14]. Moreover, the Ratio with Enterococcus [15] and with Enterococcus [16] was 10 in each case. Moreover, the HC50 at 1 h in [17] is above 250 µM. The hemolysis at 1 h, 250 µM in [18] was found to be 1%.
Turning to `CN[C@H](CC(C)C)C(=O)N[C@H]1C(=O)N[C@@H](CC(N)=O)C(=O)N[C@H]2C(=O)N[C@H]3C(=O)N[C@H](C(=O)N[C@H](C(=O)O)c4cc(O)cc(O)c4-c4cc3ccc4O)[C@H](O)c3ccc(c(Cl)c3)Oc3cc2cc(c3O[C@@H]2O[C@H](CO)[C@@H](O)[C@H](O)[C@H]2O[C@H]2C[C@](C)(NCc3ccc(C(=O)NCCC[N+](C)(C)Cc4ccc(-c5ccccc5)cc4)cc3)[C@H](O)[C@H](C)O2)Oc2ccc(cc2Cl)[C@H]1O`, the MIC with Staphylococcus aureus [1] is 0.5 µM; in the series with Staphylococcus aureus [2], 7.3 µM; with Staphylococcus aureus [3], 7.3 µM; with Staphylococcus aureus [4] it was 3.7 µM; in the series on Enterococcus [5] it was 7.3 µM; with Enterococcus [6], 3.7 µM. Moreover, the MIC in the series on Enterococcus [7] and in the series on Enterococcus [8] was 14.7 µM throughout. Also, the Ratio in the series on Staphylococcus aureus [10], in the series with Staphylococcus aureus [11], in the series on Staphylococcus aureus [12], with Enterococcus [13], with Enterococcus [14] and in the series on Enterococcus [15] was 47 throughout. Further, the Ratio in the series with Enterococcus [16] is recorded as 47. The same molecule yielded an HC50 at 1 h in [17] above 250 µM. Further, the hemolysis at 1 h, 250 µM in series [18] was 0%.
In the case of `CCCCCCCCNC(=O)C[N+](C)(C)CCCNC(=O)c1ccc(CN[C@@]2(C)C[C@H](O[C@H]3[C@H](Oc4c5cc6cc4Oc4ccc(cc4Cl)[C@@H](O)[C@@H](NC(=O)[C@@H](CC(C)C)NC)C(=O)N[C@@H](CC(N)=O)C(=O)N[C@H]6C(=O)N[C@H]4C(=O)N[C@H](C(=O)N[C@H](C(=O)O)c6cc(O)cc(O)c6-c6cc4ccc6O)[C@H](O)c4ccc(c(Cl)c4)O5)O[C@H](CO)[C@@H](O)[C@@H]3O)O[C@@H](C)[C@H]2O)cc1`, the MIC in the series on Staphylococcus aureus [1] was found to be 0.4 µM; in the series with Staphylococcus aureus [2], 1.8 µM; in the series on Staphylococcus aureus [3], 3.7 µM; in the series with Staphylococcus aureus [4], 3.7 µM; in the series on Enterococcus [5], 0.9 µM; with Enterococcus [6], 0.9 µM. Moreover, the MIC in the series with Enterococcus [7] and in the series on Enterococcus [8] was 14.7 µM throughout. The Ratio in the series on Staphylococcus aureus [10], with Staphylococcus aureus [11], in the series on Staphylococcus aureus [12], in the series on Enterococcus [13], with Enterococcus [14] and in the series on Enterococcus [15] was 750 each time. Also, the Ratio in the series on Enterococcus [16] is recorded as 750. In series [17], this molecule had an HC50 at 1 h above 250 µM. The hemolysis at 1 h, 250 µM in series [18] is 1%.
Consider `CCCCCCCCNC(=O)c1ccc(CN[C@@]2(C)C[C@H](O[C@H]3[C@H](Oc4c5cc6cc4Oc4ccc(cc4Cl)[C@@H](O)[C@@H](NC(=O)[C@@H](CC(C)C)NC)C(=O)N[C@@H](CC(N)=O)C(=O)N[C@H]6C(=O)N[C@H]4C(=O)N[C@H](C(=O)N[C@H](C(=O)O)c6cc(O)cc(O)c6-c6cc4ccc6O)[C@H](O)c4ccc(c(Cl)c4)O5)O[C@H](CO)[C@@H](O)[C@@H]3O)O[C@@H](C)[C@H]2O)cc1`, for which the MIC in the series on Staphylococcus aureus [1] was 1 µM (≈ 1.69 µg/mL); in the series with Staphylococcus aureus [2], 4.2 µM (≈ 7.12 µg/mL); with Staphylococcus aureus [3], 2.1 µM (≈ 3.56 µg/mL); in the series on Staphylococcus aureus [4] it was 0.3 µM (≈ 0.508 µg/mL); with Enterococcus [5] it was 4.2 µM (≈ 7.12 µg/mL); in the series with Enterococcus [6], 2.1 µM (≈ 3.56 µg/mL). For the same molecule, the MIC amounted to 1 µM (≈ 1.69 µg/mL) with Enterococcus [7] and 8.3 µM (≈ 14.1 µg/mL) in the series on Enterococcus [8]. Moreover, the Ratio in the series with Staphylococcus aureus [9] came out at 2; with Staphylococcus aureus [10], 166; in the series on Staphylococcus aureus [11], 166; in the series with Staphylococcus aureus [12] it was 166; in the series on Enterococcus [13], 166; with Enterococcus [14] it was 166. Further, the Ratio in the series with Enterococcus [15] and in the series on Enterococcus [16] was 166 throughout. Also, the HC50 at 1 h in [17] was above 250 µM.

The record behind these values is ChEMBL document CHEMBL5223082, “Alkyl-Aryl-Vancomycins: Multimodal Glycopeptides with Weak Dependence on the Bacterial Metabolic State” (J Med Chem, 2021).
